What was measured:
[1] = system: Jurkat cells; test: Inhibition of proliferation of Jurkat cells; type: cell-based, human
Procedure: (§1) Cancer cell lines were obtained from the American Type Culture Collection (Manassas, Va.). Cell lines were maintained in RPMI1640 supplemented with glutamine and 5% fetal bovine serum containing SerXtend (Irvine Scientific) when appropriate insulin, as directed by the ATCC. The fetal bovine serum used for culture was heat-inactivated by maintaining the serum at 56° C. for 1 h. Cell lines used were a T celleukemia (Jurkat), prostate cancer (PC3, DU145, LNCAP), breast cancer (MDA468, MDA361, MCF7), pancreatic cancer (MIA PaCa2), liver cancer (Hep G2), lung cancer (A549, NCl H460), colon cancer (HT29, HCT 116), and ovarian cancer (SK-OV-3).
(§2) LNCaP cells at 2.5×10^4 cells/well or PC-3 cells at 5×10^4 cells/well, both in a final volume of […], were plated in triplicate in standard flat-bottomed 96-well tissue culture plates in the presence of drug or vehicle (DMSO). Unless otherwise indicated, cells were grown for 48 h at 37° C. in a CO2 incubator. Relative cell growth was determined with the CellTiter 96 aqueous cell proliferation assay (Promega, Madison, Wis.) as described by the manufacturer using an automated plate reader. Results were calculated in a blinded fashion and are the means of triplicate determinations.

[2] = system: Jurkat cells; test: Inhibition of calcium entry into Jurkat cells (indo-1 fluorescence); type: cell-based, human
Procedure: Cells were incubated in growth media containing 1 uM of the acetoxy-methyl ester of the Ca2+-sensitive fluorescent dye indo-1 (indo-1/AM; Molecular Probes, Eugene, Oreg.) for 1 h at 37° C. Cells were washed three times in buffer A [10 mM HEPES (pH 7.4), 1 mM MgCl2, 3 mM KCl, 1 mM CaCl2, 140 mM NaCl, 0.1% glucose, and 1% fetal bovine serum] and suspended to a final concentration of 10^6 cells/ml. Before stimulation, cells were warmed to 37° C. Changes in [Ca2+]i were monitored in an SLM […] spectrofluorimeter (SLM/Aminco; Urbana, Ill.) using previously published methods ([…]., Szabo, G., and Gray, L. S. 1996. A voltage operable current is involved in activation-induced Ca^2+ entry in human lymphocytes whereas ICRAC has no apparent role. Am. J. Physiol. 271:[…]., and Gray, L. S. 1998. Calmodulin regulation of Ca^2+ entry in Jurkat T cells. Cell Calcium 23:361-368).

[3] = system: MDA-231 cells; test: Inhibition of proliferation of MDA-231 cells; type: cell-based; settings: Homo sapiens, MDA-MB-231, NE = no effect at highest concentration of drug tested, read-out: prolif: IC50 for inhibition of proliferation, MDA-231
[4] = system: LNCaP cells; test: Inhibition of proliferation of LNCaP cells; type: cell-based; settings: Homo sapiens, NE = no effect at highest concentration of drug tested, read-out: prolif: IC50 for inhibition of proliferation, LNCaP
Procedure: as §1, §2

[5] = system: MDA-435 cells; test: Inhibition of proliferation of MDA-435 cells; type: cell-based; settings: MDA435, NE = no effect at highest concentration of drug tested, read-out: prolif: IC50 for inhibition of proliferation, MDA-435
[6] = system: PC3 cells; test: Inhibition of proliferation of PC3 cells; type: cell-based, human; settings: Homo sapiens, PC-3; PC3; NE = no effect at highest concentration of drug tested; read-out: prolif: IC50 for inhibition of proliferation, PC3
Procedure: as §1, §2

[7] = system: MDA-361 cells; test: Inhibition of proliferation of MDA-361 cells; type: cell-based; settings: MDA361, NE = no effect at highest concentration of drug tested, read-out: prolif: IC50 for inhibition of proliferation, MDA-361
Procedure: as §1, §2

[8] = system: MDA-231 cells; test: Inhibition of calcium entry into MDA-231 cells; type: cell-based; settings: Homo sapiens, MDA-MB-231, NE = no effect at highest concentration of drug tested, read-out: Ca2+: IC50 for inhibition of calcium entry, MDA-231
Procedure: (§3) Cells were incubated in growth media containing 1 uM of the acetoxy-methyl ester of the Ca2+-sensitive fluorescent dye indo-1 (indo-1/AM; Molecular Probes, Eugene, Oreg.) for 1 h at 37° C. Cells were washed three times in buffer A [10 mM HEPES (pH 7.4), 1 mM MgCl2, 3 mM KCl, 1 mM CaCl2, 140 mM NaCl, 0.1% glucose, and 1% fetal bovine serum] and suspended to a final concentration of 10^6 cells/ml. Before stimulation, cells were warmed to 37° C. Changes in [Ca2+]i were monitored in an SLM 8100C spectrofluorimeter (SLM/Aminco; Urbana, Ill.) using previously published methods (Densmore, J. J., Haverstick, D. M., Szabo, G., and Gray, L. S. 1996. A voltage operable current is involved in activation-induced Ca^2+ entry in human lymphocytes whereas ICRAC has no apparent role. Am. J. Physiol. 271:C1494-C1503; Haverstick, D. M., Densmore, J. J., and Gray, L. S. 1998. Calmodulin regulation of Ca^2+ entry in Jurkat T cells. Cell Calcium 23:361-368).

[9] = system: MDA-435 cells; test: Inhibition of calcium entry into MDA-435 cells; type: cell-based; settings: MDA435, NE = no effect at highest concentration of drug tested, read-out: Ca2+: IC50 for inhibition of calcium entry, MDA-435
Procedure: as §3

[10] = system: LNCaP cells; test: Inhibition of calcium entry into LNCaP cells; type: cell-based; settings: Homo sapiens, NE = no effect at highest concentration of drug tested, read-out: Ca2+: IC50 for inhibition of calcium entry, LNCaP
Procedure: as §3

[11] = Homo sapiens, Jurkat cell line, Tables 1 and 2, unit inferred, read-out: IC50 for inhibition of Ca^2+ entry
[12] = Homo sapiens, Jurkat cell line, Tables 1 and 2, unit inferred, read-out: IC50 for inhibition of proliferation
[13] = Homo sapiens, Jurkat, NE = no effect at highest concentration of drug tested, read-out: Ca2+: IC50 for inhibition of calcium entry, Jurkat
[14] = Homo sapiens, Jurkat, NE = no effect at highest concentration of drug tested, read-out: prolif: IC50 for inhibition of proliferation, Jurkat
[15] = Jurkat cell line, Tables 1 and 2, unit inferred, read-out: IC50 for inhibition of Ca^2+ entry
[16] = Jurkat cell line, Tables 1 and 2, unit inferred, read-out: IC50 for inhibition of proliferation

In the case of `C[C@H](CCC(=O)O)C[C@H](C)C[C@H](C)C(=O)/C=C(\O)[C@H](C)C[C@H](C)C/C=C/[C@@H](C)[C@@H](O)[C@@H](C)[C@@H](O)C[C@@H]1CC[C@@](C)([C@H]2CC[C@@](C)([C@@H](C)O)O2)O1` [ionomycin], the “effect on proliferation of ionomycin alone” value ([1]; 30 nM ionomycin alone, Jurkat) is reported as “no effect”.

`CN(C)CCCN1c2ccccc2Sc2ccccc21` [Promazine] showed an IC50 [2, 11] of 10 µM and an IC50 [1, 12] of 30 µM.

`CC(CN1c2ccccc2Sc2ccccc21)N(C)C` (stereo not drawn) [Promethazine] gave an IC50 [2, 11] of 60 µM and an IC50 [1, 12] of 4 µM.

For `COc1ccc(COCCOC(c2ccccc2)c2ccc(Cl)cc2)cc1` (stereo not drawn) [Compound 3.7], the IC50 [3] was > 100 µM, the IC50 [2, 13] was 10 µM and the IC50 [4] was ~100 µM. For the same compound, the IC50 [1, 14] was ~100 µM, the IC50 [5] was > 100 µM and the IC50 [6] was > 100 µM. For the same compound, the IC50 [7] was > 100 µM and the IC50 [8] was 60 µM.

Work on `CCN(CC)C(C)CN1c2ccccc2Sc2ccccc21` (stereo not drawn) [Ethopropazine] yielded an IC50 [2, 11] of 10 µM and an IC50 [1, 12] of 30 µM.

For `COc1ccc(NCCCCCCC(c2ccccc2)c2ccc(Cl)cc2)cc1` (stereo not drawn) [Compound 3.17], the IC50 [3] was > 100 µM, the IC50 [9] was 30 µM and the IC50 [2, 13] was 30 µM. The IC50 [4] was > 100 µM, the IC50 [1, 14] was > 100 µM and the IC50 [5] was > 100 µM. For the same compound, the IC50 [6] was > 100 µM, the IC50 [10] was 30 µM and the IC50 [8] was 30 µM.

`O=C(O)c1cccnc1Nc1cccc(C(F)(F)F)c1` [Niflumic acid] gave an IC50 [2, 11] of 50 µM and an IC50 [1, 12] of 100 µM.

`CC(C)COCC(CN(Cc1ccccc1)c1ccccc1)N1CCCC1` (stereo not drawn) [Bepridil] showed an IC50 [2, 11] of 5 µM and an IC50 [1, 12] of 10 µM.

`COc1ccc2c(c1)N(C[C@H](C)CN(C)C)c1ccccc1S2` [Methotrimeprazine] showed an IC50 [2, 11] of 10 µM and an IC50 [1, 12] of 30 µM.

In the case of `C1CCC(C(CC2CCCCN2)C2CCCCC2)CC1` (stereo not drawn) [Perhexiline], the IC50 [2, 11] is reported as 5 µM and the IC50 [1, 12] is reported as 10 µM.

`Cc1cccc(C)c1NC(=O)CN1CCN(CCCC(c2ccc(F)cc2)c2ccc(F)cc2)CC1` [Lidoflazine] showed an IC50 [2, 11] of 5 µM and an IC50 [1, 12] of 10 µM.

`COC(=O)C1=C(C)NC(C)=C(C(=O)OCCN(C)Cc2ccccc2)C1c1cccc([N+](=O)[O-])c1` (stereo not drawn) [Nicardipine] was tested, and the IC50 [2, 11] was 10 µM and the IC50 [1, 12] was 30 µM.

With `COCCOC(=O)C1=C(C)NC(C)=C(C(=O)OC(C)C)C1c1cccc([N+](=O)[O-])c1` (stereo not drawn) [Nimpodipine] the IC50 [2, 15] was > 100 µM and the IC50 [1, 16] was > 100 µM.

`CC(Cc1ccc(O)c(O)c1)C(C)Cc1ccc(O)c(O)c1` (stereo not drawn) [NDGA, Nordihydroguaiaretic acid] was tested, and the IC50 [2, 15] was 10 µM and the IC50 [1, 16] was 30 µM.

Work on `Cc1cccc(CN2CCN(C(c3ccccc3)c3ccc(Cl)cc3)CC2)c1` (stereo not drawn) [Meclizine] yielded an IC50 [2, 11] of 30 µM and an IC50 [1, 12] of 30 µM.

— patent US20090234019A1, “T Type Calcium Channel Inhibitors” (priority 2004, published 2009)
